Source: patent US12655116B2, “Substituted isophthalic acid diamides” (Bayer Aktiengesellschaft, priority 2020, dated 2026)

Experiments:
ALOMY = assay: Pre-emergence herbicidal action against ALOMY; type: in vivo, Alopecurus myosuroides; conditions: 80 g/ha, pre-emergence, scored visually after 3 weeks vs untreated controls (100% = plants have died, 0% = like control plants)
Summary of the method: (§1)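 Sandy loam pots, seeds covered with soil, then surface-treated with WP or EC formulations at 600–800 l/ha water plus 0.2% wetting agent. Greenhouse, 3 weeks. Percent damage vs untreated controls.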

ECHCG [1] = assay: Pre-emergence herbicidal action against ECHCG; type: in vivo, Echinochloa crus-galli; conditions: 80 g/ha
Summary of the method: as §1

SETVI [2] = assay: Pre-emergence herbicidal action against SETVI; type: in vivo, Setaria viridis
Summary of the method: as §1

VERPE [3] = assay: Pre-emergence herbicidal action against VERPE; type: in vivo, Veronica persica; conditions: Veronica persica, 504 h
Summary of the method: as §1

POLCO [4] = assay: Post-emergence herbicidal action against POLCO; type: in vivo, Polygonum convolvulus; conditions: dosage 20 g/ha
Procedure: Seeds of monocotyledonous and dicotyledonous weed and crop plants are laid out in sandy loam soil in wood-fiber pots, covered with soil and cultivated in a greenhouse under good growth conditions. 2 to 3 weeks after sowing, the test plants are treated at the one-leaf stage. The compounds of the invention, formulated in the form of wettable powders (WP) or as emulsion concentrates (EC), are then sprayed onto the green parts of the plants in the form of an aqueous suspension or emulsion at a water application rate equivalent to 600 to 800 l/ha, with addition of 0.2% wetting agent. After the test plants have been left to stand in the greenhouse under optimal growth conditions for about 3 weeks, the action of the preparations is assessed visually in comparison to untreated controls (herbicidal action in percent (%): 100% activity=the plants have died, 0% activity=like control plants). […] The tables below illustrate, in an illustrative manner, the post-emergence herbicidal action of the compounds of the invention, the herbicidal activity being stated in percent.

ECHCG [5] = assay: Post-emergence herbicidal action against ECHCG; type: in vivo, Echinochloa crus-galli
Summary of the method: (§2)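 Herbicidal action is a visual percentage rating (0% = as untreated control, 100% = plants dead) made roughly 3 weeks after treatment. Plants were grown in sandy loam in the greenhouse and treated at the one-leaf stage, 2 to 3 weeks post-sowing. Treatment was a foliar spray of wettable-powder or emulsion-concentrate formulations at 600 to 800 l/ha water plus 0.2% wetting agent.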

DIGSA = assay: Pre-emergence herbicidal action against DIGSA; type: in vivo, Digitaria sanguinalis
Summary of the method: as §1

ABUTH [6] = assay: Post-emergence herbicidal action against ABUTH; type: in vivo, Abutilon theophrasti; conditions: visual assessment about 3 weeks after treatment vs untreated controls
Summary of the method: as §2

MATIN [7] = assay: Pre-emergence herbicidal action against MATIN; type: in vivo, Matricaria inodora
Summary of the method: as §1

AMARE = assay: Pre-emergence herbicidal action against AMARE; type: in vivo, Amaranthus retroflexus
Summary of the method: as §1

ABUTH [8] = assay: Pre-emergence herbicidal action against ABUTH; type: in vivo, Abutilon theophrasti
Summary of the method: as §1

MATIN [9] = assay: Post-emergence herbicidal action against MATIN; type: in vivo, Matricaria inodora; conditions: Tripleurospermum inodorum, 504 h, dosage 20 g/ha
Summary of the method: as §2

VIOTR [10] = assay: Post-emergence herbicidal action against VIOTR; type: in vivo, Viola tricolor; conditions: Viola tricolor, 504 h
Summary of the method: as §2

VIOTR [11] = assay: Pre-emergence herbicidal action against VIOTR; type: in vivo, Viola tricolor
Summary of the method: as §1

VERPE [12] = assay: Post-emergence herbicidal action against VERPE; type: in vivo, Veronica persica; conditions: Veronica persica, 504 h
Summary of the method: as §2

PHBPU [13] = assay: Post-emergence herbicidal action against PHBPU; type: in vivo, Pharbitis purpurea; conditions: dosage 20 g/ha
Summary of the method: as §2

AVEFA = assay: Pre-emergence herbicidal action against AVEFA; type: in vivo, Avena fatua; conditions: 80 g/ha, pre-emergence
Summary of the method: as §1

SETVI [14] = assay: Post-emergence herbicidal action against SETVI; type: in vivo, Setaria viridis; conditions: dosage 20 g/ha
Summary of the method: as §2

PHBPU [15] = assay: Pre-emergence herbicidal action against PHBPU; type: in vivo, Pharbitis purpurea; conditions: dosage 80 g/ha
Summary of the method: as §1

POLCO [16] = assay: Pre-emergence herbicidal action against POLCO; type: in vivo, Polygonum convolvulus
Summary of the method: as §1

[17] = 80 g/ha, scored visually after 3 weeks vs untreated controls (100% = plants have died, 0% = like control plants)

CCNC(=O)c1c(C(F)F)ccc(C(=O)Nc2nnnn2C)c1OC [Example 1-73]
pest or weed control at 80 g/ha (ALOMY; Alopecurus myosuroides, 504 h): 80% | pest or weed control at 80 g/ha (ECHCG [1]; Echinochloa crus-galli, 504 h): 100% | pest or weed control at 80 g/ha (SETVI [2]; Setaria viridis, 504 h, dosage 80 g/ha): 100% | pest or weed control at 20 g/ha (VERPE [3]; dosage 20 g/ha): 80% | pest or weed control at 80 g/ha (VERPE [3]; dosage 80 g/ha): 100% | pest or weed control at 20 g/ha (POLCO [4]; Fallopia convolvulus, 504 h): 80% | pest or weed control at 5 g/ha (ECHCG [5]; Echinochloa crus-galli, 504 h, dosage 5 g/ha): 80% | pest or weed control at 20 g/ha (ECHCG [5]; Echinochloa crus-galli, 504 h, dosage 20 g/ha): 80% | pest or weed control at 20 g/ha (DIGSA; Digitaria sanguinalis, 504 h, dosage 20 g/ha): 90% | pest or weed control at 80 g/ha (DIGSA; Digitaria sanguinalis, 504 h, dosage 80 g/ha): 100% | pest or weed control at 5 g/ha (ABUTH [6]; Abutilon theophrasti, 504 h, dosage 5 g/ha): 80% | pest or weed control at 20 g/ha (ABUTH [6]; Abutilon theophrasti, 504 h, dosage 20 g/ha): 80% | pest or weed control at 20 g/ha (MATIN [7]; Tripleurospermum inodorum, 504 h, dosage 20 g/ha): 90% | pest or weed control at 80 g/ha (MATIN [7]; Tripleurospermum inodorum, 504 h, dosage 80 g/ha): 100% | pest or weed control at 20 g/ha (AMARE; Amaranthus retroflexus, 504 h, 20 g/ha, scored visually after 3 weeks vs untreated controls, 100% = plants have died, 0% = like control plants): 100% | pest or weed control at 80 g/ha (AMARE; Amaranthus retroflexus, 504 h, 80 g/ha, scored visually after 3 weeks vs untreated controls, 100% = plants have died, 0% = like control plants): 100% | pest or weed control at 80 g/ha (ABUTH [8]; Abutilon theophrasti, 504 h, 80 g/ha, scored visually after 3 weeks vs untreated controls (100% = plants have died, 0% = like control plants)): 100% | pest or weed control at 20 g/ha (ABUTH [8]; Abutilon theophrasti, 504 h, dosage 20 g/ha, scored visually after 3 weeks vs untreated controls, 100% = plants have died, 0% = like control plants, read-out: Pre-emergence action against ABUTH (herbicidal activity in percent)): 100% | pest or weed control at 20 g/ha (MATIN [9]): 80% | pest or weed control at 5 g/ha (VIOTR [10]; 5 g/ha): 80% | pest or weed control at 20 g/ha (VIOTR [10]; 20 g/ha): 80% | pest or weed control at 20 g/ha (VIOTR [11]; Viola tricolor, 504 h, dosage 20 g/ha): 100% | pest or weed control at 80 g/ha (VIOTR [11]; Viola tricolor, 504 h, dosage 80 g/ha): 100% | pest or weed control at 5 g/ha (VERPE [12]; 5 g/ha): 80% | pest or weed control at 20 g/ha (VERPE [12]; 20 g/ha): 80%

CCn1nnnc1NC(=O)c1ccc(C(F)(F)F)c(C(=O)NCC(F)F)c1C [Example 2-30]
Pre-emergence action against ALOMY (herbicidal activity) (ALOMY): 100% | Post-emergence action against PHBPU in % (PHBPU [13]): 90% | Pre-emergence action against ECHCG in % (ECHCG [1]): 100% | Pre-emergence action against AVEFA in % (AVEFA): 100% | Post-emergence action against SETVI in % (SETVI [14]): 80% | Pre-emergence action against SETVI in % (SETVI [2]; dosage 20 g/ha): 100% | Pre-emergence action against SETVI in % (SETVI [2]; dosage 80 g/ha): 100% | Post-emergence action against POLCO in % (POLCO [4]): 80% | Post-emergence action against ECHCG in % (ECHCG [5]; dosage 5 g/ha): 80% | Post-emergence action against ECHCG in % (ECHCG [5]; dosage 20 g/ha): 80% | Pre-emergence action against DIGSA in % (DIGSA; dosage 20 g/ha): 100% | Pre-emergence action against DIGSA in % (DIGSA; dosage 80 g/ha): 100% | Post-emergence action against ABUTH in % (ABUTH [6]; dosage 5 g/ha): 80% | Post-emergence action against ABUTH in % (ABUTH [6]; dosage 20 g/ha): 80% | Pre-emergence action against MATIN in % (MATIN [7]; dosage 20 g/ha): 100% | Pre-emergence action against MATIN in % (MATIN [7]; dosage 80 g/ha): 100% | Pre-emergence action against AMARE in % (AMARE; 20 g/ha, scored visually after 3 weeks vs untreated controls, 100% = plants have died, 0% = like control plants): 100% | Pre-emergence action against AMARE in % (AMARE; [17]): 100% | Pre-emergence action against PHBPU in % (PHBPU [15]): 80% | Pre-emergence action against ABUTH (herbicidal activity) (ABUTH [8]; [17]): 100% | Pre-emergence action against POLCO in % (POLCO [16]; dosage 20 g/ha): 80% | Pre-emergence action against POLCO in % (POLCO [16]; dosage 80 g/ha): 80% | Pre-emergence action against VIOTR in % (VIOTR [11]; dosage 20 g/ha): 100% | Pre-emergence action against VIOTR in % (VIOTR [11]; dosage 80 g/ha): 100%
